In patent US12115176B2, “Methods and compositions relating to ClbP inhibition” (PRESIDENT AND FELLOWS OF HARVARD COLLEGE, priority 2021, dated 2024):
“Also recorded” adds a separate entry of the source.

Experiments:
[1] = test system: Enterococcus faecalis; test: Bacterial MIC assay (broth dilution); type: cell-based; conditions: 15 h, read-out: MICs by compound
[2] = test system: a variety of bacterial strains from common gut phyla, including E. coli; test: Turbidity MIC assay, all strains together; type: cell-based; conditions: Escherichia coli; all strains tested; upper limit tested 200 μM; read-out: MICs in liquid culture
Source text: Compound 3 is an inhibitor of colibactin-associated genotoxicity. Since colibactin is produced in the context of the gut microbiota, it is essential to understand how 3 can affect other members of this community and whether it remains an effective inhibitor under these conditions. […] A turbidity assay was used to determine minimum inhibitory concentrations (MICs) in liquid culture of 1-4 against a variety of bacterial strains from common gut phyla, including E. coli (Table 3).
MICs of compounds against different bacterial species were determined using a modified version of a broth microdilution protocol which has been previously reported.^1 Briefly, cultures of each species indicated were inoculated from frozen stocks in deoxygenated Wilkins-Chalgren Anaerobic Medium (WCAM) inside of an anerobic chamber with an 92.5% N2/5% CO2/2.5% H2 atmosphere. Cultures were grown for 24-48 hours in a 37° C. incubator at which point an OD600-measurement was taken for each culture and was accordingly diluted in fresh WCAM to an equivalent of OD600=0.01. Diluted cultures were then distributed into the wells of a clear, flat-bottom 384-well plate and the compound of interest was added to a final DMSO concentration of 2% (or DMSO only for positive controls). […] mineral oil (Millipore Sigma) was deposited on top of the cultures and plates were covered with a clear adhesive plate seal. Plates were incubated at 37° C. for 16 hours, at which point the OD600 of all wells was recorded on a SpectraMax M2 plate reader (Molecular Devices).

[3] = target: E. coli BL21 overexpressing ClbP (Escherichia coli, UniProt Q0P7K6); test: ClbP fluorescence activity assay (live cells); type: cell-based
Description: ClbP fluorescence activity assay (live cells). One 5 mL starter culture each E. coli BL21 pET-29b-ClbP and pET-29b-ClbP-S95A were inoculated from frozen stocks and grown overnight at 37° C. in LB medium supplemented with 50 μg/ml kanamycin (LB+kan). Overnight cultures were diluted 1:100 in fresh LB+kan and incubated at 37° C. to an OD600 of 0.3, at which point protein expression was induced by the addition of 500 μM isopropyl β-D-1-thiogalactopyranoside (IPTG) and cultures were moved to 15° C. for 4 hours. Cultures were then aliquoted in a black 384-well plate and the appropriate concentration of inhibitor was added as a DMSO stocks to a final concentration of 1% DMSO in a volume of 30 μL. Reactions were initiated by the addition of 10 μL of LB+kan+IPTG containing the fluorogenic substrate (final concentration=100 μM). Plastes were incubated at 25° C. with intermittent shaking while taking regular fluorescence measurements in a Bio-Tek Synergy HTX multimode plate reader with an excitation filter of 360/40 nm and an emission filter of 440/20 nm. “% activity” was determined based on the formula above using RFU measurements after 7 hours.

[4] = test system: E. coli BW25113 BACpks; test: Metabolomics (LC-MS, XCMS); type: cell-based; conditions: BW pks (and NC101), 1 μM 3 versus DMSO
Description: Metabolomics. One 5 mL starter culture each of E. coli BW25113 BACpks and E. coli BW25113 BACpksΔclbP was inoculated from frozen stocks and grown overnight at 37° C. in LB medium supplemented with 35 μg/ml chloramphenicol (LB+cam). Overnights were diluted 1:1000 in fresh LB+cam+1% DMSO with or without 1 μM inhibitor 3 in 5 replicates for each condition and grown for 20 hours at 37° C. A 500 μL aliquot was taken from each replicate, flash frozen in liquid nitrogen and lyophilized to dryness. Lyophilized pellets were extracted with 500 μL LC-MS grade methanol and prepared in the same manner as described above for metabolomics. Samples were analyzed by LC-MS on an Agilent Technologies 1200 series LC with a Phenomenex Luna C18 column (5 μm, 100 Å, 250×4.6 mm) coupled to an Agilent 6530 Quadrupole-Time of Flight mass spectrometer. The following chromatography conditions were used: 99% Solvent A in Solvent B for 1.5 minutes, linear gradient to 0% Solvent A in Solvent B over 43.5 minutes, 0% Solvent A for 8 minutes, linear gradient back to 99% Solvent A over 1 minute, equilibration in 99% solvent A for 9 minutes at flow rate of 0.4 mL/min and a 10 uL injection volume. Solvent A is water with 0.1% formic acid, solvent B is acetonitrile with 0.1% formic acid. […]

[5] = test system: HeLa cells infected with NC101; test: HeLa infection assay with pks+ E. coli, cell cycle analysis by flow cytometry; type: cell-based, human
Description: Infection with pks^+ E. coli. Assays for cell-cycle arrest and FANCD2 ubiquitination were performed by seeding 24-well plates with 125,000 HeLa cells per well and incubating those plates under standard conditions for 24 hours. At the same time, cultures of NC101 and NC101ΔclbP were started from frozen stocks in LB broth and grown at 37° C. with shaking overnight. […] Cultures were monitored until an OD600 of 0.3-0.5 was reached. At that point, samples of the cultures were removed and DMSO stock solutions of the inhibitor of interest were added to each sample to a final concentration of 1% DMSO and the concentration of inhibitor indicated.
Media in the 24-well plate was aspirated, HeLa cells were washed with sterile DPBS (Thermo Fisher Scientific), and fresh DMEM+FBS+1% DMSO with the indicated concentration of inhibitor was added. A volume of E. coli equivalent to 2.5×10^7 bacteria based on OD in DMEM+FBS+1% DMSO with the indicated concentration of inhibitor was then added directly to wells (Multiplicity of Infection, MOI 1:100). Infections were carried out for 4 hours at 37° C. in a humidified 5% CO2 incubator. Media was then aspirated and cells were washed with DPBS twice to remove bacteria, and fresh DMEM+FBS+PSF supplemented with 50 μg/mL gentamicin was added.
Cell Cycle Analysis. Between 20 and 24 hours after infection, HeLa cells were trypsinized (0.25% Trypsin-EDTA, Gibco), washed with DPBS, and fixed in cold 70% ethanol and stored at 4° C. until flow cytometry analysis (24-48 hours). Cells were centrifuged at 800×g for 10 minutes and 70% ethanol was aspirated. Cells were resuspended in DPBS for 15 minutes, then centrifuged and supernatant aspirated again. Cells were then resuspended in DPBS with 0.2 mg/mL RNAse A (Invitrogen) and 0.02 mg/mL propidium iodide (Millipore Sigma). After 30 minutes, cells were analyzed on a BD LSR II Analyzer at the Harvard University Bauer Core Flow Cytometry Facility. For each replicate, 10,000 events were collected and results were gated for single cells and plotted using the FloJo™ software package.

In the case of `CC1(C)OB([C@@H](CC(N)=O)NC(=O)CCCc2ccccc2)OC1(C)C` [Compound 3], the MIC [1] is reported as greater than 200 µM, the MIC [2] is reported as greater than 200 µM and the IC50 [3] is reported as 18.3 nM. For the same molecule, the “changes in metabolites versus clbP deletion” value [4] was “resulted in the same changes in metabolites as genetic deletion of clbP”, the “concentration that completely blocks G2/M phase cell cycle arrest” value ([5]; HeLa and NC101, inhibitor in the infection medium, FIG. 12A) was no more than 100 nM and the “concentration that completely blocks G2/M phase cell cycle arrest” value ([5]; HeLa and pks+ E. coli, 1-hour preincubation of inhibitor with E. coli, FIG. 4) was no more than 5 nM. The “cell cycle arrest phenotype of colibactin genotoxicity” value ([5]; HeLa cells infected with NC101, propidium iodide flow cytometry) was “can block the cell cycle arrest phenotype; also recorded: prevents cell cycle arrest” and the IC50 ([5]; Homo sapiens, HeLa cells infected with pks+ E. coli, FIG. 4, read-out: apparent IC50 for inhibition of G2/M-phase arrest) was roughly 10 nM.
